This passage reports Activity and EC50 results from ChEMBL document CHEMBL1148980, “Scabrolides E-G, three new norditerpenoids from the soft coral Sinularia scabra” (2004).

What all share (format): functional
The test system of one assay is KB. The experiment in a line: Cytotoxicity against human KB cells by MTT assay. In general terms: Tetrazolium assays rely on reduction of a dye to a coloured formazan, in cell work by metabolically active cells.
Another assay deals with HEPA 59T/VGH. Kind of assay: (§1) Cytotoxicity against human HEPA 59T/VGH cells by MTT assay.
Assay [1] is described as follows: as §1. To be noted: read-out: ED50 (the source's name).

Values after ≈ are worked out from the molar mass of the structure shown. Active and inactive are the calls of the source. The calls are words filed in the database; no cut-off is given here.

With `C=C(C)[C@@H]1CC(=O)C[C@H](O)[C@@]2(O)[C@H]1C=C1C(=O)O[C@@H]3C[C@](C)(O)[C@H]2[C@H]13`, the outcome in the assay on KB and in the assay on HEPA 59T/VGH was inactive.
`C=C(C)[C@H]1C/C=C2\C(=O)O[C@H](C[C@]3(C)CC(=O)[C@H](CC(=O)C1)O3)[C@H]2O` [SCABROLIDE E]: the EC50 with KB (read-out: ED50 (the source's name)) was found to be 0.7 mg/L (≈ 2.01 µM); in assay [1], 0.5 mg/L (≈ 1.44 µM).
